Data set [1] concerns CYP3A. The note with it: in vitro; complex with the vitamin D receptor; CYP3A substrate midazolam; cited from earlier work.
A short description of data set [2]: Plasma atorvastatin and metabolite concentrations/AUC (LC-MS/MS) with and without supplemental vitamin D. Format: in vivo, human. As for the experimental part: Study protocol. A prospective crossover study was performed. […] Columbus Ohio 43216). All other prescribed medications were continued unchanged throughout the study. […] The sample cone voltage and collision energy for all analytes and internal standard were set at 30 V and 20 eV, respectively. Chromatography was performed on BDS C18 column (50×4.6 mm, 5 μm particle size, Thermo Electron Corporation, Bellefonte, Pa.). […] Twenty-five percent of flow liquid was split into the mass system. […] The organic layer then transferred to another tube and evaporated by N2 gas and reconstituted with 0.2 ml 50% CH3CN containing 0.05% acetic acid and 5 mM ammonium acetate, and 20 μl was injected onto column. Lower limit of detection was 0.313 ng/ml for atorvasatin and metabolites. […] Area under the plasma concentration vs. time curve (AUC) was calculated by trapezoidal rule.

Data set [3] relates to circulating cholesterol. The data set can be described thus: Example 2: atorvastatin with 1000 IU/day vitamin D2 or D3 or placebo for 12 weeks, circulating cholesterol. The data set is classed as in vivo, human. The note with it: co-administration with atorvastatin. As for the experimental part:
The focus is on clinical populations including the elderly, frail, and minorities under steady-state conditions and with conditions reflecting “usual” clinical conditions with use of sparse sampling techniques and minimal impact on clinical care. […] About 90 participants are enrolled, with 30 receiving placebo, 30 receiving vitamin D2, and 30 receiving vitamin D3. Total vitamin D intake is analyzed (primarily driven by dairy food intake and supplements), and patients with major absorptive disorders (intestinal bypass surgery, feeding tubes requiring liquid diets, etc) are excluded. Other factors that could affect vitamin D absorption such as alcohol intake are evaluated.

Data set [4] deals with cholesterol (total, LDL-cholesterol, and HDL-cholesterol). In words: Serum cholesterol concentrations (enzymatic assay) in patients on atorvastatin with and without supplemental vitamin D. The data set is classed as in vivo, human. To be noted: for Cholesterol Total: serum; for Cholesterol Total / LDL-cholesterol / HDL-cholesterol: mean ± S.D.; for LDL-cholesterol: calculated LDL. How it is done:
Study protocol. A prospective crossover study was performed. […] Columbus Ohio 43216). All other prescribed medications were continued unchanged throughout the study. […] Lipid concentration data. Serum samples were analyzed for cholesterol, LDL-cholesterol (calculated) and HDL-cholesterol concentrations by enzymatic assay (Quest Diagnostics, San Jose, Calif.).

For data set [5], the system named is cholesterol (total, LDL-cholesterol). The data set can be described thus: Example 3: 1000 IU/day vitamin D for 12 weeks in humans not receiving atorvastatin, cholesterol. Format: in vivo, human. The note with it: one middle-aged subject. As for the experimental part: A study is performed with 1000 IU/day of either vitamin D2 or vitamin D3 or identically packaged placebo for a period of 12 weeks. Cholesterol (total, LDL-cholesterol, HDL-cholesterol) and triglycerides are evaluated before and during supplemental vitamin D or placebo. Focus is on adult humans with or without known lipid disorders that are not receiving atorvastatin.

A short description of data set [6]: Serum vitamin D metabolite concentrations (LCMSMS) in patients on atorvastatin, crossover with/without supplemental vitamin D. Format: in vivo, human. The note with it: vitamin D supplementation 800 IU/day for six weeks (On-D), mean ± S.D. As for the experimental part:
Study protocol. A prospective crossover study was performed. […] If subjects were taking vitamin D supplementation at recruitment, assigned study order was “On-D” after six week of standardized study dispensed vitamins followed by the “Off-D” study after six weeks of vitamin D discontinuation. […] All other prescribed medications were continued unchanged throughout the study.

The mark [7] stands for this setting: no vitamin D supplementation (Off-D), atorvastatin.
The mark [8] stands for this setting: vitamin D supplementation 800 IU/day six weeks (On-D), patients on atorvastatin.

Turning to `C=C1/C(=C\C=C2/CCC[C@]3(C)[C@@H]([C@H](C)CCCC(C)(C)O)CC[C@@H]23)C[C@@H](O)C[C@@H]1O` [1,25-(OH)2 vitamin D], in data set [1], the “regulation of CYP3A activity” value is “increased transcription of CYP3A protein and greater metabolism of the CYP3A substrate midazolam”.
In the case of `CC(C)c1c(C(=O)Nc2ccccc2O)c(-c2ccccc2)c(-c2ccc(F)cc2)n1CCC(O)CC(O)CC(=O)O` (centres unmarked) [2-OH, 2-hydroxyatorvastatin acid], the “ratio of hydroxy-atorvastatin acid to atorvastatin” value in data set [2] (during supplemental vitamin D) came to 0.74±0.36; in data set [2] (off-D), 0.81±0.32.
As for `CC(C)c1c(C(=O)Nc2ccc(O)cc2)c(-c2ccccc2)c(-c2ccc(F)cc2)n1CC[C@@H](O)C[C@@H](O)CC(=O)O` [4-hydroxy-atorvastatin acid, 4-hydroxyatorvastatin acid], the “AUC/concentrations during vitamin D co-administration compared to the off-D study period” value in data set [2] (comparison between study periods) was “significantly lower”. Moreover, the “ratio of hydroxy-atorvastatin acid to atorvastatin” value in data set [2] (during supplemental vitamin D) came out at 0.09±0.09; in data set [2] (off-D), 0.10±0.09.
As to `C=C1CC[C@H](O)C/C1=C/C=C1\CCC[C@]2(C)[C@@H]([C@H](C)CCCC(C)C)CC[C@@H]12` [D3, cholecalciferol], the “circulating cholesterol compared with atorvastatin and placebo” value in data set [3] is “additional reduction”.
Regarding `CC(C)c1c(C(=O)Nc2ccccc2)c(-c2ccccc2)c(-c2ccc(F)cc2)n1CC[C@@H](O)C[C@@H](O)CC(=O)O` [atorvastatin], the “Cholesterol Total” value in data set [4] (no vitamin D supplementation (Off-D), atorvastatin 45±33 mg/day) amounted to 169 ± 35 mg/dL; in data set [4] (no vitamin D supplementation (Off-D), atorvastatin 45±33 mg/day, listed as Atorvastatin), 169 ± 35 mg/dL. Moreover, the LDL-cholesterol was 97 ± 28 mg/dL in data set [4] (setting [7]) and 97 ± 28 mg/dL in data set [4] (no vitamin D supplementation (Off-D), atorvastatin, listed as Atorvastatin). The HDL-cholesterol in data set [4] (setting [7]) is 47 ± 11 mg/dL.
Regarding `C=C1CC[C@H](O)C/C1=C/C=C1\CCC[C@]2(C)[C@@H]([C@H](C)/C=C/[C@H](C)C(C)C)CC[C@@H]12` [vitamin D2, ergocalciferol], the “circulating cholesterol compared with atorvastatin and placebo” value in data set [3] is “additional reduction”.
As to vitamin D, the total cholesterol in data set [5] (after about 12 weeks of 1000 IU vitamin D (single and combined forms of D2 and D3), 241 before vitamin D) was determined as 201 mg/dL; in data set [5] (after about 12 weeks of 1000 IU vitamin D, 238 before vitamin D), 219 mg/dL. The LDL-cholesterol in data set [5] (after about 12 weeks of 1000 IU vitamin D, 125 before vitamin D) is 112 mg/dL; in data set [5] (after about 12 weeks of 1000 IU vitamin D, 144 before vitamin D), 98 mg/dL; in data set [4] (setting [8]), 83 ± 30 mg/dL. In data set [4] (On-D versus Off-D), the “difference in HDL-cholesterol with vitamin D supplementation” value is “No difference”. In addition, in data set [4] (On-D versus Off-D, patients on atorvastatin), the “subjects with lower total cholesterol during supplemental vitamin D” value is on record as “thirteen of sixteen”. For the same compound, the “mean difference in LDL-cholesterol” value in data set [4] (after six weeks of vitamin D supplementation, co-administered with atorvastatin) was found to be 14.4%. In addition, the “Cholesterol Total” value in data set [4] (vitamin D supplementation 800 IU/day six weeks (On-D), patients on atorvastatin 45±33 mg/day) amounted to 157 ± 37 mg/dL. Also, the HDL-cholesterol in data set [4] (setting [8]) came out at 44 ± 11 mg/dL. Also, the “Vitamin D (25-OH) Total 25-hydroxy serum concentration” value in data set [6] (patients on atorvastatin) came to 29 ± 14 ng/mL. The “Vitamin D (active) 1,25-dihydroxy serum concentration” value in data set [6] (patients on atorvastatin) is reported as 38 ± 15 pg/mL. Moreover, the “D3, 25-hydroxy serum concentration” value in data set [6] stood at 20 ± 17 ng/mL.

The values above are taken from patent publication US20090163452A1, “COMPOSITIONS AND METHODS FOR LOWERING SERUM CHOLESTEROL” (priority 2007, published 2009).
